From US8871728B2, “Non-peptide macrocyclic histone deacetylese (HDAC) inhibitors and methods of making and using thereof” (Georgia Tech Research Corporation, priority 2007, dated 2014)
Read-outs that look alike come from different tables or passages of the source.

What was measured:
[1] = biological target: T1, HDAC8 (Homo sapiens (Human), UniProt Q9BY41); assay: Fluor de Lys HDAC8 inhibition; format: biochemical; settings: average of three independent experiments; Table 4; read-out: HDAC 8
[2] = tested on: HeLa nuclear extract HDAC1/2; assay: Fluor de Lys HDAC inhibition, HeLa nuclear extract; format: biochemical, human; settings: HeLa nuclear extract; average of three independent experiments; Table 4; read-out: HDAC ½
From the text: Fluor de Lys™ is a fluorescence based HDAC activity assay comprising a combination of fluorogenic Histone deAcetylase Lysyl substrate and a developer. The kit is a highly sensitive and convenient alternative to radiolabeled, acetylated histones or peptide/HPLC methods for the assay of histone deacetylases. This assay is based on the ability of HeLa nuclear extract, which is enriched in HDAC activity, to mediate the deacetylation of the acetylated lysine side chain of the Fluor de Lys substrate. The assay procedure requires two steps. First, incubation of the HeLa nuclear extract with the Fluor de Lys substrate results in substrate deacetylation and thus sensitizes it to the second step. In the second step, treatment of the deacetylated substrate with the Fluor de Lys developer produces a fluorophore. The substrate-developer reaction, under normal circumstances goes to completion in less than 1 min at 25° C. The kit used was the Fluorimetric Assay/Drug Discovery Kit—AK-500 Manual Fluorescent Assay System available from BIOMOL® International, Plymouth Meeting, Pa.
Each IC50 value was obtained by averaging three independent experiments.

[3] = tested on: SKMES 1; assay: Cell viability, trypan blue exclusion; format: cell-based; settings: Homo sapiens, SK-MES-1
From the text: (§1) Most importantly, the compounds we less toxic to untransformed cell-lines (lung fibroblast and HMEC).
(§2) Most importantly, these compounds are less toxic to untransformed cell-lines (lung fibroblast and HMEC) that we have studied to date.

[4] = tested on: HMEC; assay: Cell viability, trypan blue exclusion; format: cell-based; settings: Homo sapiens; untransformed cells
From the text: as §1, §2

[5] = tested on: DU 145 cells; assay: Cell viability, trypan blue exclusion; format: cell-based; settings: Homo sapiens
From the text: as §1, §2

[6] = tested on: lung fibroblasts; assay: Cell viability, trypan blue exclusion; format: cell-based; settings: Fibroblast; untransformed cells
From the text: as §1, §2

[7] = tested on: NCI-H69; assay: Cell viability, trypan blue exclusion; format: cell-based; settings: Homo sapiens
From the text: as §1, §2

[8] = tested on: DU 145 (androgen independent prostate cancer); assay: Anti-cancer activity screen; format: cell-based
[9] = tested on: LNCaP (androgen dependent prostate cancer); assay: Anti-cancer activity screen; format: cell-based; settings: Homo sapiens, LNCaP
[10] = biological target: T1, HDAC8; assay: SAMDI mass spectrometry HDAC inhibition assay; format: biochemical
Protocol: (§3) There is precedence that fluorescently labeled substrates can perturb enzyme activity and the effect of inhibitors. […] Additionally, 3-hydroxypyridine-2-ones are highly colored solids and might lead to false positive signals. Mindful of these facts, a label-free SAMDI (self-assembled monolayers for MALDI) mass spectrometry assay was also used to assess HDAC inhibition.
(§4) The SAMDI technique, wherein self-assembled monolayers (SAM) of alkanethiolates on gold are analyzed by matrix assisted laser desorption/ionization (MALDI) mass spectrometry, has been widely used to characterize many biochemical activities, including the deacetylase enzyme family.

[11] = biological target: HDAC1 (Homo sapiens (Human), UniProt Q13547); assay: SAMDI mass spectrometry HDAC inhibition assay; format: biochemical; settings: SAMDI
HDAC1, sequence (Q13547 whole entry): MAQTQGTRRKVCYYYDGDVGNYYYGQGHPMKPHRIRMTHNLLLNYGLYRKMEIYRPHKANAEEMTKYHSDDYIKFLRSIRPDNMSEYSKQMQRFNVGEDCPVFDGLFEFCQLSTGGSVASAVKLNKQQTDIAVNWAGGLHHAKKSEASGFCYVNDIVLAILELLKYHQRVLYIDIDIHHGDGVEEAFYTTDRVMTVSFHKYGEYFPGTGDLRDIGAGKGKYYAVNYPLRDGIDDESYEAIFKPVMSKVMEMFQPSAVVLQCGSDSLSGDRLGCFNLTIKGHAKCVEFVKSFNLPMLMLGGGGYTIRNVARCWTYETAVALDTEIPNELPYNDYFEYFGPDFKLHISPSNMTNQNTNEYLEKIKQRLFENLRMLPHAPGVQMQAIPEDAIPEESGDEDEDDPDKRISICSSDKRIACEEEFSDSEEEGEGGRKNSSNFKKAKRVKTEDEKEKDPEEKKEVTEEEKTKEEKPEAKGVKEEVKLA
Protocol: as §3, §4

[12] = tested on: Jurkat (T cell leukemia overexpressing HDAC8); assay: Anti-cancer activity screen; format: cell-based; settings: Homo sapiens, Jurkat, read-out: Jurkat (μm)
[13] = biological target: HDAC6 (Homo sapiens (Human), UniProt Q9UBN7); assay: SAMDI mass spectrometry HDAC inhibition assay; format: biochemical
HDAC6, sequence (Q9UBN7 whole entry): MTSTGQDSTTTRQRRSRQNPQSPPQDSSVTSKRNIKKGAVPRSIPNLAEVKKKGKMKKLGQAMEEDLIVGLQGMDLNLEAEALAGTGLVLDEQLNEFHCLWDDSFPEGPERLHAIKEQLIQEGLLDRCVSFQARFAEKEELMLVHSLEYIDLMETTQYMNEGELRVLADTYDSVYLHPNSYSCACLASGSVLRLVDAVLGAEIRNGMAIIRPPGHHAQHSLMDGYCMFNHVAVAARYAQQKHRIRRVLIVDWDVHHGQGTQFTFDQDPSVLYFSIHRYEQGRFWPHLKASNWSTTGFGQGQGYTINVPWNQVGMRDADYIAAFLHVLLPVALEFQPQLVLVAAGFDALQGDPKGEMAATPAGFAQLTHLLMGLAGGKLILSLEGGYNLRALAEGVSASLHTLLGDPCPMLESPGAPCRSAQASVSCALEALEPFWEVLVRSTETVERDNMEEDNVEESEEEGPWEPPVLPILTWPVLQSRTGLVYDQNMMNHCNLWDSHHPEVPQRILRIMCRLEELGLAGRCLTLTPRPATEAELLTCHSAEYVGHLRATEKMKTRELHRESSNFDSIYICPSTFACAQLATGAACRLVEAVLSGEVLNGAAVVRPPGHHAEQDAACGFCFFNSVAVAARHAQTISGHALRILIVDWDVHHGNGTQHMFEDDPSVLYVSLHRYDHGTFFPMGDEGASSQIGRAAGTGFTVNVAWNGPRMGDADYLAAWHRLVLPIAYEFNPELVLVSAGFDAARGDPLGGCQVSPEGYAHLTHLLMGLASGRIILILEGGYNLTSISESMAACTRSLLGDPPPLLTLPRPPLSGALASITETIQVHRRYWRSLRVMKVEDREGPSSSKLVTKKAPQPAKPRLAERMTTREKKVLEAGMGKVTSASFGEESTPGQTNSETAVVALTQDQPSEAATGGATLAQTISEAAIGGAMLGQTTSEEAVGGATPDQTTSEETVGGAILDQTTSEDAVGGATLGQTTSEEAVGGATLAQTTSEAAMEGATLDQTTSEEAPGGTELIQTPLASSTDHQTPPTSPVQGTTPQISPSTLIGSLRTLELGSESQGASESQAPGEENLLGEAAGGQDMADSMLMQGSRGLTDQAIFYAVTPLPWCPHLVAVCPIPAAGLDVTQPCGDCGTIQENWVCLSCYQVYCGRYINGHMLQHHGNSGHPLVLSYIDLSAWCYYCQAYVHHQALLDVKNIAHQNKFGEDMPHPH
Protocol: as §3
as §4, with “family. The SAMDI assay was used to measure the inhibition constant (K1) of fragments against HDAC1, HDAC6 and HDAC8 using a previously identified preferred HDAC substrate.” for “family.”

[14] = Homo sapiens, DU-145, calculated IC50 above 20 μM (highest concentration tested) also reported as >20

T1 sequence (Q9BY41 whole entry): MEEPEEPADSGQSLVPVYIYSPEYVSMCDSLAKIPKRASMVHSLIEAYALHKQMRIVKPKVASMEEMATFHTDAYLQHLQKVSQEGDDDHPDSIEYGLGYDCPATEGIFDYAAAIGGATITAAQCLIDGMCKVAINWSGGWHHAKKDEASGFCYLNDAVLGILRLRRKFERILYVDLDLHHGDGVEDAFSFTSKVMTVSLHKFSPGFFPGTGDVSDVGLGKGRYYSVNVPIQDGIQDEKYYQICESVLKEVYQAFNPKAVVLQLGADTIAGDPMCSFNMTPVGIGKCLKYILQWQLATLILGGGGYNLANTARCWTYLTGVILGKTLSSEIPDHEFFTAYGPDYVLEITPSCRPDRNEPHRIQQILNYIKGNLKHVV

IC50 [1] [µM]	IC50 [2] [µM]	EC50 [3] [µM]	EC50 [7] [µM]	Compound	EC50 [4] [µM]	EC50 [5] [µM]	EC50 [6] [µM]	IC50 [8, 14] [µM]	IC50 ([8]; calculated IC50 above 20 μM (highest concentration tested) also reported as >20) [µM]	IC50 [9] [µM]	IC50 ([10]; SAMDI, read-out: HDAC8 IC50) [µM]	IC50 ([10]; SAMDI, read-out: HDAC8 activity (IC50)) [µM]	IC50 ([10]; Table 14, read-out: HDAC 8 (nm)) [µM]	HDAC1 inhibition, symbol [11]	IC50 [12] [µM]	IC50 ([13]; SAMDI, read-out: HDAC6 IC50) [µM]	IC50 ([13]; Table 14, read-out: HDAC 6 (nm)) [µM]
3.99	0.037	2.15	2.67	CC[C@H]1OC(=O)[C@H](C)[C@@H](O[C@H]2C[C@@](C)(OC)[C@@H](O)[C@H](C)O2)[C@H](C)[C@@H](O[C@@H]2O[C@H](C)C[C@H](N(C)Cc3ccc(-c4cn(CCCCCC(=O)NO)nn4)cc3)[C@H]2O)[C@](C)(OC)C[C@@H](C)C(=O)[C@H](C)[C@@H](O)[C@]1(C)O [Compound 23, Clarithromycin-N-phenyltriazolylhexahydroxamic acid]	> 10	2.98	> 10	–	–	–	–	–	–	–	–	–	–
4.75	0.0443	1.95	1.92	CC[C@H]1OC(=O)[C@H](C)[C@@H](O)[C@H](C)[C@@H](O[C@@H]2O[C@H](C)C[C@H](N(C)Cc3ccc(-c4cn(CCCCCC(=O)NO)nn4)cc3)[C@H]2O)[C@](C)(OC)C[C@@H](C)C(=O)[C@H](C)[C@@H](O)[C@]1(C)O [Compound 24, Descladinose-Clarithromycin-N-phenyltriazolylhexahydroxamic acid]	> 10	3.29	> 10	–	–	–	–	–	–	–	–	–	–
1.89	0.00409	1.33	1.45	CC[C@H]1OC(=O)[C@H](C)[C@@H](O[C@H]2C[C@@](C)(OC)[C@@H](O)[C@H](C)O2)[C@H](C)[C@@H](O[C@@H]2O[C@H](C)C[C@H](N(C)Cc3ccc(-c4cn(CCCCCCC(=O)NO)nn4)cc3)[C@H]2O)[C@](C)(OC)C[C@@H](C)C(=O)[C@H](C)[C@@H](O)[C@]1(C)O [Compound 25, Clarithromycin-N-phenyltriazolylheptahydroxamic acid]	> 10	1.12	> 10	–	–	–	–	–	–	–	–	–	–
1.39	0.00187	1.28	1.49	CC[C@H]1OC(=O)[C@H](C)[C@@H](O)[C@H](C)[C@@H](O[C@@H]2O[C@H](C)C[C@H](N(C)Cc3ccc(-c4cn(CCCCCCC(=O)NO)nn4)cc3)[C@H]2O)[C@](C)(OC)C[C@@H](C)C(=O)[C@H](C)[C@@H](O)[C@]1(C)O [Compound 26, Descladinose-Clarithromycin-N-phenyltriazolylheptahydroxamic acid]	> 10	1.05	> 10	–	–	–	–	–	–	–	–	–	–
5.88	0.0556	4.89	5.67	CC[C@H]1OC(=O)[C@H](C)[C@@H](O[C@H]2C[C@@](C)(OC)[C@@H](O)[C@H](C)O2)[C@H](C)[C@@H](O[C@@H]2O[C@H](C)C[C@H](N(C)Cc3ccc(-c4cn(CCCCCCCC(=O)NO)nn4)cc3)[C@H]2O)[C@](C)(OC)C[C@@H](C)C(=O)[C@H](C)[C@@H](O)[C@]1(C)O [Compound 27, Clarithromycin-N-Phenyltriazolyloctahydroxamic acid]	> 10	6.97	> 10	–	–	–	–	–	–	–	–	–	–
–	–	–	–	N#Cc1ccccc1-c1ccc(Cn2cccc(O)c2=S)cc1 [Compound 149c, 1-(2-Cyano-(1,1′-biphenylmethyl))-3-hydroxyoxypyridine-2-thione]	–	–	–	30 ± 5.85	> 20	14.7 ± 0.84	1.91 ± 0.771	~2	1.91 ± 0.771	NI (No significant Inhibition (below 20% Inhibition))	8.95 ± 0.69	0.372 ± 0.035	–
–	–	–	–	Cc1ccccc1-c1ccc(Cn2cccc(O)c2=S)cc1 [Compound 149f, 1-(2-Methyl-(1,1′-biphenylmethyl))-3-hydroxyoxypyridine-2-thione]	–	–	–	13.6 ± 2.91	–	7.75 ± 0.73	–	–	–	NI (No significant Inhibition (below 20% Inhibition))	–	–	0.306 ± 0.069
